According to paper PMC3637257, “A Novel Anti-Tumor Inhibitor Identified by Virtual Screen with PLK1 Structure and Zebrafish Assay” (PLoS ONE, 2013):

test system: PC-3; assay: cells; parameters: MTS cell viability / proliferation assay of PC-3 prostate cancer cells; settings: Homo sapiens, PC-3, 72 h; read-out: IC50 inhibiting PC-3
Method: Fifteen human cancer cell lines were tested in our studies. Initial screens used human lung cancer cell A549, human epithelial cervical cancer Hela cells, human prostate cancer PC-3 cells, human epidermoid cancer KB-31 cells, human breast cancer MDA-MB-231 cells, and human pancreatic cancer HPAF. These cell lines were obtained commercially from ATCC. The first six cell cultures were maintained in 75 cm^2 cell culture flasks in which the cells were passaged at 70–80% confluence every 2–3 days. All cancer cells were cultured in RPMI 1640 containing 10% fetal calf serum, 100 U/mL penicillin, 100 µg/mL streptomycin, and 2 mM L-lutamine (complete RPMI medium). All cancer cells were plated at 1×10^4 cells per well in a 96 well plate. Drugs of different concentrations were then added. MTS assays (CellTiter 96® AQueous One Solution Cell Proliferation Assay, Promega) were performed after 72 h post treatment to determine the cell viability following drug administration.

| IC50 [µM] | SMILES |
| --- | --- |
| 10 | COc1ccc2nc(SCC(=O)Nc3nccs3)c(C#N)cc2c1 [5j] |
| 30 | COc1ccc2nc(SCC(=O)Nc3ccccc3O)c(C#N)cc2c1 [5k] |
| 10 | COc1ccc2nc(SCC(=O)Nc3ccc(Cl)cc3Cl)c(C#N)cc2c1 [5l] |
| 20 | CCc1cccc(CC)c1NC(=O)CSc1nc2ccc(OC)cc2cc1C#N [5m] |
| 10 | COc1ccc2nc(SCC(=O)Nc3ccc(N(C)C)cc3)c(C#N)cc2c1 [5n] |
| 20 | COc1ccc(C)cc1NC(=O)CSc1nc2ccc(Cl)cc2cc1C#N [5o] |
| 10 | N#Cc1cc2cc(Cl)ccc2nc1SCC(=O)Nc1ccccc1C(F)(F)F [5p] |
| 20 | COc1ccc(C)cc1NC(=O)CSc1nc2ccc(C)cc2cc1C#N [5q] |
| 40 | Cc1ccc2nc(SCC(=O)Nc3ccccc3C(F)(F)F)c(C#N)cc2c1 [5r] |
| 40 | COc1ccc(C)cc1NC(=O)CSc1nc2ccc(Br)cc2cc1C#N [5s] |
| 50 | N#Cc1cc2cc(Br)ccc2nc1SCC(=O)Nc1ccccc1C(F)(F)F [5t] |
| 1 | COc1ccc2nc(SCC(=O)Nc3cc(C)ccc3OC)c(C#N)cc2c1 [I2] |

The remaining lines, values behind:

| SMILES | IC50 [µM] |
| --- | --- |
| COc1ccc2nc(SCC(=O)Nc3ccccc3OC)c(C#N)cc2c1 [5a] | 40 |
| COc1ccc2nc(SCC(=O)Nc3cc(Cl)ccc3OC)c(C#N)cc2c1 [5b] | 10 |
| COc1ccc(OC)c(NC(=O)CSc2nc3ccc(OC)cc3cc2C#N)c1 [5c] | 10 |
| COc1ccc2nc(SCC(=O)Nc3ccccc3Br)c(C#N)cc2c1 [5d] | 10 |
| COc1ccc2nc(SCC(=O)Nc3ccccc3Cl)c(C#N)cc2c1 [5e] | 10 |
| COc1ccc2nc(SCC(=O)Nc3ccccn3)c(C#N)cc2c1 [5f] | 10 |
| COc1ccc2nc(SCC(=O)Nc3ccc(Cl)cn3)c(C#N)cc2c1 [5g] | 10 |
| COc1ccc2nc(SCC(=O)Nc3cnccn3)c(C#N)cc2c1 [5h] | 10 |
| COc1ccc2nc(SCC(=O)Nc3cc(C(F)(F)F)ccc3C(F)(F)F)c(C#N)cc2c1 [5i] | 20 |
